≈ marks a conversion by molar mass, not a printed value.
Tests used:
[1] = Penetration ratio, ratio of fAUC (0 to 4 hrs) in Sprague-Dawley rat brain to fAUC (0 to 4 hrs) in Sprague-Dawley rat plasma at […], sc; assay type: ADME, organism-based; set-up: dose 3.2 mg/kg, route subcutaneous
[2] = Permeability of the compound by PAMPA; assay type: ADME; settings: read-out: permeability
[3] = Solubility of compound at pH 6.6; assay type: physicochemical; settings: buffer
[4] = Penetration ratio, ratio of AUC (0 to 4 hrs) in Sprague-Dawley rat CSF to AUC (0 to 4 hrs) in Sprague-Dawley rat unbound plasma at […], sc; assay type: ADME, organism-based; set-up: dose 3.2 mg/kg, route subcutaneous; settings: read-out: Ratio AUC
[5] = Solubility of compound at pH 5.5; assay type: physicochemical; settings: buffer
[6] = Permeability across dog RRCK cells; assay type: ADME, cell-based, Canis lupus familiaris, MDCKII-LE; settings: MDCK, read-out: permeability

Kp uu [1]: 1
Papp [2]: 19 ×10⁻⁶ cm/s
solubility [3]: 110 µg/mL (≈ 295 µM)
Kp uu [4]: 1.2
solubility [5]: > 8530 µg/mL
Papp [6]: 19 ×10⁻⁶ cm/s
Compound: CC(C)CNCc1ccc(-c2ccccc2S(=O)(=O)N2CCCC2)cc1 [PF-04455242]
